# Key:
# [1] = test system: TNFα release by PBMCs stimulated by LPS; test: Inhibition of TNFα release by mononuclear cells (PBMCs) stimulated by LPS; type: cell-based; conditions: compound 1 hour before LPS, further 20 hours, TNFα in supernate by ELISA
# Source text: 1. Effects of Mononuclear Cells (PBMCs) Stimulated by LPS on TNFα
# The research in respect of cytokine TNFα release by PBMCs in the human peripheral blood after stimulated by lipopolysaccharide (LPS) can be carried out in vitro. The research method for inhibiting cytokine TNFα release by PBMCs upon stimulation by LPS with the pharmaceutical active ingredients in the present application is described as follows.
# PBMCs are obtained from heparin treated blood of at least three volunteer donors. The heparin treated blood of at least three volunteer donors was subject to gradient separation of the known method to obtain PBMCs. The PBMCs were collected and washed with 1640 medium (10% fetal bovine serum, 2 mM L-glutamine, […] mercaptoethanol, 50 μg/ml streptomycin and 50 U/ml penicillin) three times. The PBMCs was added into a 24-well plate and prepared with a concentration of 1×10^6 cell/ml with 1640 medium. A compound to be tested was dissolved in dimethylsulfoxide and prepared as a solution of the compound to be tested with a required concentration. The solution was added into the cell cultures. After incubated in a CO2 incubator (5% CO2, 90% humidity) for 1 hour, LPS (Sigma) was added until […] (except for the control).
# After the medium was further incubated for 20 hours, the content of TNFα in the supernate of the PBMCs medium was measured by the standard method with commercial ELISA kit (U. S Genzyme Co). The inhibition ratio of TNFα was calculated by the measured value of control well without treated by active ingredients and the measured value of the test well using the test compound. The concentration of generating 50% inhibition of the TNFα release (IC50 value) was calculated with nonlinear regression analysis. Each concentration was measured twice simultaneously and an average value was calculated.
# PDE4D2 = biological target: T1, PDE4D2 (Homo sapiens, UniProt Q08499); test: Inhibitory activity of PDE4 enzyme (hydrolysis of cAMP), PDE4D2; type: biochemical; conditions: cAMP 5 μM, 37° C., 15 min to 30 min, AMP by HPLC-MS
# T1 construct: purchased BPS bioscience 60043
# T1 sequence (Q08499 303-809): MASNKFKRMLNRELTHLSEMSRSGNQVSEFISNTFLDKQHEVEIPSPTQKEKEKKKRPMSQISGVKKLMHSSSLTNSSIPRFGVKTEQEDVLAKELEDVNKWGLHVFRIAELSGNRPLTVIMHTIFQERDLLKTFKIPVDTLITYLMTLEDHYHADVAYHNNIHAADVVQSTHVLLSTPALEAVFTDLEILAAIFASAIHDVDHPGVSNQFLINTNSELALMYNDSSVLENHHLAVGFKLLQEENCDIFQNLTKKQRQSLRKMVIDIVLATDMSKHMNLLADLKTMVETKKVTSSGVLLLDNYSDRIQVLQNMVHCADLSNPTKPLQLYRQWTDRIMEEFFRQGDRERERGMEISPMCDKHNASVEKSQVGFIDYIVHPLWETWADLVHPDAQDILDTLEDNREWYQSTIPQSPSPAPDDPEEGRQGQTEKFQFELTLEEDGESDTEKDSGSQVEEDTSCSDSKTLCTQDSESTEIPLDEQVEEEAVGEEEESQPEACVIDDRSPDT
# Method: (§1) (1) The inhibitory actions of compounds on activity of hydrolyzing cAMP with PDE4 enzyme were assayed by the inhibitory activity of PDE4 enzyme. The procedures are described as follows.
# (§2) Humanized PDE4A1A, PDE4B1 and PDE4D2 were purchased from BPS bioscience (catalogue Nos.: 60040, 60041 and 60043, respectively). The enzyme reactions were carried out in 10 mM Tris-HCl (pH 7.4) and 1 mM MgCl2. The concentration of cAMP was 5 μM. The reaction was maintained at 37° C. for 15 min to 30 min so that the consumption of the substrate was controlled within 20%. The reaction was quenched with equal volume of acetonitrile. The production amount of the […] AMP was measured by HPLC-MS. The inhibitory activity of compounds on PDE4 enzyme was obtained by comparing the production amounts of the AMP in the experimental groups having the compounds with those of the control groups having no compounds.
# PDE4B1 = biological target: T2, PDE4B1 (Homo sapiens, UniProt Q07343); test: Inhibitory activity of PDE4 enzyme (hydrolysis of cAMP), PDE4B1; type: biochemical; conditions: cAMP 5 μM, 37° C., 15 min to 30 min, AMP by HPLC-MS
# T2 construct: purchased BPS bioscience 60041
# T2 sequence (Q07343 whole entry): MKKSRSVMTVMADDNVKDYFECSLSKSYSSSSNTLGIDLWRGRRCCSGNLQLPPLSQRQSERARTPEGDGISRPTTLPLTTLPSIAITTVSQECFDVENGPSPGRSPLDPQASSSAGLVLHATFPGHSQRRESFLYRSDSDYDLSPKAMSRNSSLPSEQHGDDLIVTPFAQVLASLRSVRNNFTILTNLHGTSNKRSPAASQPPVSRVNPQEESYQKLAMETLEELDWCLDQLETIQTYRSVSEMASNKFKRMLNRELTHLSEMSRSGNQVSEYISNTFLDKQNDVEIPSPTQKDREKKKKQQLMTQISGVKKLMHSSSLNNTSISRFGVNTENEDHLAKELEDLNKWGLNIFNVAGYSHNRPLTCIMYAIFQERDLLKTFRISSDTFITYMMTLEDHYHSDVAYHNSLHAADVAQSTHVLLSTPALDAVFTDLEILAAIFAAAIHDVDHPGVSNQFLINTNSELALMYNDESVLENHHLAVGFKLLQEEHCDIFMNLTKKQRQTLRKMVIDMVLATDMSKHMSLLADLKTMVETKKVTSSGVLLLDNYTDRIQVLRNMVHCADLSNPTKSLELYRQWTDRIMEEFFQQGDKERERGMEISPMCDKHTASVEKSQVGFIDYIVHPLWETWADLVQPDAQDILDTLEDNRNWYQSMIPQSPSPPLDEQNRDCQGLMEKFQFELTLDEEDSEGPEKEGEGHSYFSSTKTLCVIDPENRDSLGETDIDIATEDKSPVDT
# Method: as §1, §2
# PDE4A1A = biological target: T3, PDE4A1A (Homo sapiens, UniProt P27815); test: Inhibitory activity of PDE4 enzyme (hydrolysis of cAMP), PDE4A1A; type: biochemical; conditions: cAMP 5 μM, 37° C., 15 min to 30 min, AMP by HPLC-MS
# T3 construct: purchased BPS bioscience 60040
# T3 sequence (P27815 1-647 isoform P27815-4): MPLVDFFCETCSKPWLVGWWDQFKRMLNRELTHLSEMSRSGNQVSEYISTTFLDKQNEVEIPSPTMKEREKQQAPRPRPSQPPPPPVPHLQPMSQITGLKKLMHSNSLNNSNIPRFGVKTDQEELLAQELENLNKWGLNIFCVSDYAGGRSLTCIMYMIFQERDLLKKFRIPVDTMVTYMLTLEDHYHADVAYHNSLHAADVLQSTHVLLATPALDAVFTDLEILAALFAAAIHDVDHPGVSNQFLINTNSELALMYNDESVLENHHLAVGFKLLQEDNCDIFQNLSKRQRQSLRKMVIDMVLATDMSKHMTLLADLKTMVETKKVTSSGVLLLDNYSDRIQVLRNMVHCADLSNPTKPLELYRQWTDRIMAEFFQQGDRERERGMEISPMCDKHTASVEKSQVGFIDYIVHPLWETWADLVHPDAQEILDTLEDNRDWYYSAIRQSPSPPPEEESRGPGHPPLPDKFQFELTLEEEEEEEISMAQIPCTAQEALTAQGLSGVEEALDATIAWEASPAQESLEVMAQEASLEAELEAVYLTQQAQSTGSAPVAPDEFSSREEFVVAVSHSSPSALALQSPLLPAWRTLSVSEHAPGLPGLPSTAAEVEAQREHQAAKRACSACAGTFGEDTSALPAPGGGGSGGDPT
# Method: as §1, §2
# PDE2A = biological target: T4, PDE2A (Homo sapiens, UniProt O00408); test: Inhibitory activity of PDE2 (selectivity of PDE enzyme); type: biochemical; conditions: cAMP 5 μM, 37° C., 30 min, AMP by HPLC-MS
# T4 construct: purchased BPS bioscience 60020
# T4 sequence (O00408 whole entry): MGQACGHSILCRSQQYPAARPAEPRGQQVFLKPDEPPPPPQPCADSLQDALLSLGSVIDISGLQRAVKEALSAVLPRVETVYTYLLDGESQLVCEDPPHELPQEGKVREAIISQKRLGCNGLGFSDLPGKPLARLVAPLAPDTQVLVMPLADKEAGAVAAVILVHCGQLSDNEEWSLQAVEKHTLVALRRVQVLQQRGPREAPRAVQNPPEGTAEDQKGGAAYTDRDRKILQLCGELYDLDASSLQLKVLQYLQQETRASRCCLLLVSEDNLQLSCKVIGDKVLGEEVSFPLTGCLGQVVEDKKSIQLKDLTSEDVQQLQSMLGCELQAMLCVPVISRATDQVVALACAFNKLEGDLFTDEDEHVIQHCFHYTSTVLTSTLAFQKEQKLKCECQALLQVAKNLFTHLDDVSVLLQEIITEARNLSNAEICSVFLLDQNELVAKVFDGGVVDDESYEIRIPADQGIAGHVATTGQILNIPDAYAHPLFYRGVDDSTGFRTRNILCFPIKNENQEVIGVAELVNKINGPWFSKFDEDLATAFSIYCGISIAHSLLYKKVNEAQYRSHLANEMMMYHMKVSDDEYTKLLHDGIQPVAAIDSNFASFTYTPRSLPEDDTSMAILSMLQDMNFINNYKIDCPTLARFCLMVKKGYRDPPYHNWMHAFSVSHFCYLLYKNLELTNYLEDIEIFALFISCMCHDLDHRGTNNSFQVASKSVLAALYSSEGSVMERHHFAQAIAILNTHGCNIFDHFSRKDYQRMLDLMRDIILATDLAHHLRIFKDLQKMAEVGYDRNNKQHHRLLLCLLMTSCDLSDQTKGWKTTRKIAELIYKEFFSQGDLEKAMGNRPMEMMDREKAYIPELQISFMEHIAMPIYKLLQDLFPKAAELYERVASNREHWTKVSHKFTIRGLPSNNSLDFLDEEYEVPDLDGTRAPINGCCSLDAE
# Method: (2) Inhibitory Activity of PDE2 (Selectivity of PDE Enzyme):
# as §2, with “PDE2A was” for “PDE4A1A, PDE4B1 and PDE4D2 were”, “No.: 60020).” for “Nos.: 60040, 60041 and 60043, respectively).”, “reaction was” for “reactions were”, “μM,” for “μM.”, “for” for “for 15 min to”, “PDE2” for “PDE4 enzyme”
IC50 (PDE4D2) [nM],IC50 (PDE4B1) [nM],IC50 (PDE4A1A) [nM],IC50 (PDE2A) [µM],SMILES,"IC50 ([1]; Homo sapiens, PBMC) [nM]",IC50 ([1]; human PBMCs) [nM]
1900,212,,,"CCOc1cc(C(CS(C)(=O)=O)N2C(=O)c3csc(N)c3C2=O)ccc1OC (stereo not shown) [Example 2, 5-(1-(3-ethoxy-4-methoxyphenyl)-2-(methylsulfonyl)ethyl)-1-amino-5H-thiophene[3,4-c]pyrrole-4,6-diketone]",524,
224,256,208,36,"CCOc1cc(C(CS(C)(=O)=O)N2C(=O)c3csc(NC(C)=O)c3C2=O)ccc1OC (stereo not shown) [Example 3, N-(5-(1-(3-ethoxy-4-methoxyphenyl)-2-(methylsulfonyl)ethyl)-4,6-dioxo-5,6-dihydro-4H-thiophene[3,4-c]pyrrole-1-yl)acetamide]",,296
329,1200,366,,"CCOc1cc(C(CS(C)(=O)=O)N2C(=O)c3cscc3C2=O)ccc1OC (stereo not shown) [Example 4, 5-(1-(3-ethoxy-4-methoxyphenyl)-2-(methylsulfonyl)ethyl)-5H-thiophene[3,4-c]pyrrole-4,6-diketone]",886,
,368,,,"CCOc1cc([C@@H](CS(C)(=O)=O)N2C(=O)c3cscc3C2=O)ccc1OC [Example 5, (S)-5-(1-(3-ethoxy-4-methoxyphenyl)-2-(methylsulfonyl)ethyl)-5H-thiophene[3,4-c]pyrrole-4,6-diketone]",376,
315,2300,,,"CCOc1cc([C@H](CS(C)(=O)=O)N2C(=O)c3cscc3C2=O)ccc1OC [Example 6, (R)-5-(1-(3-ethoxy-4-methoxyphenyl)-2-(methylsulfonyl)ethyl)-5H-thiophene[3,4-c]pyrrole-4,6-diketone]",2500,
831,5300,,,"COc1ccc(C(CS(C)(=O)=O)N2C(=O)c3cscc3C2=O)cc1OCc1ccccc1 (stereo not shown) [Example 9, 5-(1-(3-phenylmethoxy-4-methoxyphenyl)-2-(methylsulfonyl)ethyl)-5H-thiophene[3,4-c]pyrrole-4,6-diketone]",7500,
,1000,,,"COc1ccc(C(CS(C)(=O)=O)N2C(=O)c3csc(N)c3C2=O)cc1OCc1ccccc1 (stereo not shown) [Example 11, 5-(1-(3-phenylmethoxy-4-methoxyphenyl)-2-(methylsulfonyl)ethyl)-1-amino-5H-thiophene[3,4-c]pyrrole-4,6-diketone]",> 10000,
,1200,,,"COc1ccc(C(CS(C)(=O)=O)N2C(=O)c3csc(NC(C)=O)c3C2=O)cc1OCc1ccccc1 (stereo not shown) [Example 12, N-(5-(1-(3-phenylmethoxy-4-methoxyphenyl)-2-(methylsulfonyl)ethyl)-4,6-dioxo-5,6-dihydro-4H-thiophene[3,4-c]pyrrole-1-yl)acetamide]",> 10000,
,618,,,"CCOc1cc(C(CS(C)(=O)=O)N2C(=O)c3csc(NC(=O)CCl)c3C2=O)ccc1OC (stereo not shown) [Example 18, 2-chloro-N-(5-(1-(3-ethoxy-4-methoxyphenyl)-2-(methylsulfonyl)ethyl)-4,6-diketone-5,6-dihydro-4H-thiophene[3,4-c]pyrrole-1-yl)acetamide]",216,
,167,,,"CCOc1cc(C(CS(C)(=O)=O)N2C(=O)c3csc(NS(C)(=O)=O)c3C2=O)ccc1OC (stereo not shown) [Example 19, N-(5-(1-(3-ethoxy-4-methoxyphenyl)-2-(methylsulfonyl)ethyl)-4,6-diketone-5,6-dihydro-4H-thiophene[3,4-c]pyrrole-1-yl)methanesulfonamide]",288,
,,,,"CCOc1cc([C@@H](CS(C)(=O)=O)N2C(=O)c3csc(N)c3C2=O)ccc1OC [Example 21, (S)-1-amino-5-(1-(3-ethoxy-4-methoxyphenyl)-2-(methylsulfonyl)ethyl)-5H-thiophene[3,4-c]pyrrole-4,6-diketone]",,142
55,718,,,"CCOc1cc([C@H](CS(C)(=O)=O)N2C(=O)c3csc(N)c3C2=O)ccc1OC [Example 23, (R)-1-amino-5-(1-(3-ethoxy-4-methoxyphenyl)-2-(methylsulfonyl)ethyl)-5H-thiophene[3,4-c]pyrrole-4,6-diketone]",1900,
114,178,104,> 50,"CCOc1cc([C@@H](CS(C)(=O)=O)N2C(=O)c3csc(NC(C)=O)c3C2=O)ccc1OC [Example 24, (S)—N-(5-(1-(3-ethoxy-4-methoxyphenyl)-2-(methylsulfonyl)ethyl)-4,6-dioxo-5,6-dihydro-4H-thiophene[3,4-c]pyrrole-1-yl)acetamide]",,65
,,,,"CCOc1cc([C@H](CS(C)(=O)=O)N2C(=O)c3csc(NC(C)=O)c3C2=O)ccc1OC [Example 25, (R)—N-(5-(1-(3-ethoxy-4-methoxyphenyl)-2-(methylsulfonyl)ethyl)-4,6-dioxo-5,6-dihydro-4H-thiophene[3,4-c]pyrrole-1-yl)acetamide]",,1190
,,,,"CCOc1ccc(C(CS(C)(=O)=O)N2C(=O)c3csc(NC(C)=O)c3C2=O)cc1OC (stereo not shown) [Example 26, N-(5-(1-(3-methoxy-4-ethoxyphenyl)-2-(methylsulfonyl)ethyl)-4,6-dioxo-5,6-dihydro-4H-thiophene[3,4-c]pyrrole-1-yl)acetamide]",,> 10000

SMILES,IC50 (PDE4D2) [nM],IC50 (PDE4B1) [nM],IC50 (PDE4A1A) [nM],IC50 (PDE2A) [µM],"IC50 ([1]; Homo sapiens, PBMC) [nM]",IC50 ([1]; human PBMCs) [nM]
"CCOc1cc([C@@H](CS(C)(=O)=O)N2C(=O)c3csc([N+](=O)[O-])c3C2=O)ccc1OC [Example 20, (S)-1-nitro-5-(1-(3-ethoxy-4-methoxyphenyl)-2-(methylsulfonyl)ethyl)-5H-thiophene[3,4-c]pyrrole-4,6-diketone]",,26,,,,

# From US10611775B2, “Thiophene derivatives” (TIANJIN HEMAY PHARMACEUTICAL CO., LTD., priority 2009, dated 2020)
